Test results published in ChEMBL document CHEMBL5244272 (Eur J Med Chem, 2021).
Converted amounts (≈) assume the structure as drawn.

Tests used:
[1] = test system: Plasmodium berghei; experiment: Antimalarial activity against Plasmodium berghei infected in mouse assessed as increase in survival at 100 mg/kg, po; type: functional
[2] = test system: Plasmodium falciparum; experiment: Antimalarial activity against Plasmodium falciparum 3D7; type: functional, organism-based
[3] = test system: Plasmodium falciparum; experiment: Antimalarial activity against Plasmodium falciparum Dd2; type: functional, organism-based
[4] = test system: Plasmodium falciparum; experiment: Antimalarial activity against Plasmodium falciparum IPC5202; type: functional, organism-based
[5] = test system: Plasmodium falciparum; experiment: Antimalarial activity against Plasmodium falciparum IPC4912; type: functional, organism-based
[6] = test system: Plasmodium yoelii; experiment: Antimalarial activity against Plasmodium yoelii BY265 infected in mouse assessed reduction in parasitemia at 4.4 to […], iv administered for 4 consecutive days; type: functional; design: scale not given: the % may be the effect or the level left
[7] = test system: Plasmodium falciparum; experiment: Antimalarial activity against Plasmodium falciparum K1; type: functional, organism-based
[8] = test system: Plasmodium chabaudi; experiment: Antimalarial activity against Plasmodium chabaudi infected in mouse; type: functional
[9] = test system: Plasmodium berghei; experiment: Antimalarial activity against Plasmodium berghei infected in mouse; type: functional; conditions: for ED50: Plasmodium berghei
[10] = test system: Plasmodium berghei; experiment: Antimalarial activity against Plasmodium berghei K173 infected in mouse; type: functional; conditions: Plasmodium berghei, K173
[11] = test system: Plasmodium berghei; experiment: Potency index, ratio of artesunic acid ED50 to test compound ED50 for Plasmodium berghei; type: functional
[12] = test system: Plasmodium falciparum; experiment: Antimalarial activity against ART-sensitive Plasmodium falciparum W2; type: functional, organism-based
[13] = test system: Plasmodium falciparum; experiment: Antimalarial activity against ART-sensitive Plasmodium falciparum NF54; type: functional, organism-based
[14] = test system: Plasmodium falciparum; experiment: Antimalarial activity against ART-resistant Plasmodium falciparum Dd2 harboring R539T mutant; type: functional, organism-based
[15] = test system: Plasmodium falciparum; experiment: Antimalarial activity against ART-resistant Plasmodium falciparum NF54 harboring […] mutant; type: functional, organism-based
[16] = test system: Plasmodium falciparum; experiment: Antimalarial activity against Plasmodium falciparum HB3; type: functional, organism-based
[17] = test system: Plasmodium falciparum; experiment: Antimalarial activity against Plasmodium falciparum SGE2; type: functional, organism-based
[18] = test system: Plasmodium falciparum; experiment: Antimalarial activity against Plasmodium falciparum IV-V gametocytes; type: functional, organism-based
[19] = test system: Plasmodium falciparum; experiment: Antimalarial activity against Plasmodium falciparum W2; type: functional, organism-based
[20] = test system: Plasmodium falciparum; experiment: Antimalarial activity against Plasmodium falciparum NF54; type: functional, organism-based
[21] = Selectivity index, ratio of IC50 for HEK293 cells to IC50 for Plasmodium falciparum NF54; type: toxicity; conditions: human, read-out: Ratio IC50
[22] = test system: Plasmodium falciparum; experiment: Antimalarial activity against ART-resistant Plasmodium falciparum harboring R539T mutant assessed as increase in survival at 700 nM; type: functional
[23] = test system: Plasmodium berghei; experiment: Antimalarial activity against Plasmodium berghei infected in mouse assessed cured animal rate measured after 25 days; type: functional; conditions: time 25 day
[24] = test system: Plasmodium falciparum; experiment: Antimalarial activity against chloroquine sensitive Plasmodium falciparum FCR-3; type: functional, organism-based
[25] = test system: Plasmodium berghei; experiment: Antimalarial activity against Plasmodium berghei N strain infected in mouse at 15 mg/kg, ip administered once daily for 4 days; type: functional; conditions: time 4 day
[26] = Cytotoxicity against human MRC5 cells; type: toxicity, cell-based
[27] = test system: Plasmodium falciparum; experiment: Antimalarial activity against Plasmodium falciparum D6; type: functional, organism-based
[28] = test system: Plasmodium falciparum; experiment: Antimalarial activity against chloroquine resistant Plasmodium falciparum FcB1/Colombia; type: functional, organism-based
[29] = Selectivity index, ratio of IC50 for human AB943 to IC50 for chloroquine resistant Plasmodium falciparum FcB1/Colombia
[30] = test system: Plasmodium vinckei; experiment: Antimalarial activity against Plasmodium vinckei infected in mouse assessed as reduction in parasitaemia at 50 mg/kg, po or […], ip measured on day 5; type: functional; design: scale not given: the % may be the effect or the level left
[31] = test system: Plasmodium vinckei; experiment: Antimalarial activity against Plasmodium vinckei infected in mouse assessed as reduction in parasitaemia at 25 mg/kg, po or 7.5 mg/kg, ip measured on day 5; type: functional; design: scale not given: the % may be the effect or the level left
[32] = test system: Plasmodium falciparum; experiment: Antimalarial activity against Plasmodium falciparum; type: functional, organism-based
[33] = test system: Plasmodium berghei; experiment: Antimalarial activity against Plasmodium berghei ANKA infected in mouse at 30 mg/kg, po; type: functional
[34] = read-out: ED50 (the source's name)

Q: For `C[C@H]1[C@@H](OCC(CO[C@H]2O[C@@H]3O[C@]4(C)CC[C@H]5[C@H](C)CC[C@@H]([C@H]2C)[C@@]35OO4)=NOC(=O)CCC(=O)O)O[C@@H]2O[C@]3(C)CC[C@H]4[C@H](C)CC[C@@H]1[C@@]24OO3`, which Activity [1] is on record?
A: Its Activity is 100%.

Q: Which IC50 [2] does the source give for `Cn1nnc(NCC2CC[C@]3(CC2)OO[C@]2(O3)C3CC4CC(C3)CC2C4)n1` (stereo partly drawn) here?
A: Its IC50 is 2.9 nM.

Q: What about the IC50 [3] of the same compound?
A: Its IC50 is 2.1 nM.

Q: And the IC50 [4]?
A: Its IC50 is 3.4 nM.

Q: What about the IC50 [5] of the same compound?
A: The IC50 was 4.8 nM.

Q: Which Activity [6] does the source give for `CCCCCCCCCCCCCC[N+](C)(C)CCOC(=O)c1ccc(COC2O[C@@H]3O[C@]4(C)CC[C@H]5[C@H](C)CC[C@@H]([C@H]2C)[C@@]35OO4)cc1.[Br-]` (stereo partly drawn) here?
A: Its Activity is over 50%.

Q: Which EC50 [7, 34] does the source give for `C[C@H]1[C@@H](CCc2ccc(C(=O)O)cc2)O[C@@H]2O[C@]3(C)CC[C@H]4[C@H](C)CC[C@@H]1[C@@]24OO3` here?
A: Its EC50 is 0.6 ng/mL (≈ 1.44 nM).

Q: What about the EC50 [2, 34] of the same compound?
A: The EC50 was 1.1 ng/mL (≈ 2.64 nM).

Q: And the Activity [8]?
A: The Activity was 98.7%.

Q: Which ED50 [9] does the source give for `CC(O[C@H]1O[C@@H]2O[C@@]3(C)CC[C@H]4[C@H](C)CC[C@@H]([C@H]1C)[C@@]24OO3)c1ccc(CN2CCOCC2)c(O)c1` (stereo partly drawn) here?
A: Its ED50 is 0.64 mg/kg/day.

Q: And the ED50 [10]?
A: Its ED50 is 0.64 mg/kg/day.

Q: And the “Ratio ED50” value [11]?
A: Its value is 10.

Q: Which ED50 [9] does the source give for `C[C@H]1[C@@H](O)O[C@@H]2O[C@@]3(C)CC[C@H]4[C@H](C)CC[C@@H]1[C@@]24OO3` [ARTENIMOL] here?
A: Its ED50 is 1.15 mg/kg.

Q: And the IC50 [2]?
A: Its IC50 is 4.7 nM.

Q: And the IC50 [12]?
A: The IC50 was 1 nM.

Q: And the IC50 [13]?
A: Its IC50 is 1.5 nM.

Q: And the IC50 [14]?
A: The IC50 was 1.4 nM.

Q: And the IC50 [15]?
A: Its IC50 is 1.1 nM.

Q: What about the IC50 [3] of the same compound?
A: The IC50 was 4.2 nM.

Q: What about the IC50 [16] of the same compound?
A: The IC50 was 5 nM.

Q: What about the IC50 [17] of the same compound?
A: The IC50 was 9 nM.

Q: What about the IC50 [4] of the same compound?
A: The IC50 was 6.2 nM.

Q: And the IC50 [5]?
A: The IC50 was 3.7 nM.

Q: And the IC50 [18]?
A: Its IC50 is 440 nM.

Q: With `CC(C)CCC[C@H](C)C1CC[C@H]2[C@@H]3CC=C4C[C@@H](OC(=O)CCN5CCN([C@H]6O[C@@H]7O[C@]8(C)CC[C@H]9[C@H](C)CC[C@@H]([C@H]6C)[C@@]79OO8)CC5)CC[C@]4(C)[C@H]3CC[C@]12C` (stereo partly drawn) as the compound, how does the IC50 [19] read?
A: Its IC50 is 24 nM.

Q: What about the IC50 [7] of the same compound?
A: Its IC50 is 29 nM.

Q: And the IC50 [20]?
A: Its IC50 is 31 nM.

Q: And the selectivity ratio [21]?
A: The selectivity ratio was 3900.

Q: Which Activity [9] does the source give for `CC(C)(N)CNC(=O)C[C@H]1CC[C@]2(CC1)OO[C@]1(O2)C2CC3CC(C2)CC1C3` [OZ277] here?
A: Its Activity is 67%.

Q: And the Activity [22]?
A: The Activity was 0.01%.

Q: What about the Activity [23] of the same compound?
A: The Activity was 60%.

Q: Which IC50 [7] does the source give for `C[C@H]1C(=O)O[C@@H]2O[C@]3(C)CC[C@H]4N(Cc5ccc(OCCN6CCOCC6)cc5)CC[C@@H]1[C@@]24OO3` here?
A: The IC50 was 33 nM.

Q: And the IC50 [24]?
A: Its IC50 is 18 nM.

Q: And the Activity [25]?
A: Its Activity is 98.6%.

Q: And the IC50 [26]?
A: The IC50 was 35600 nM.

Q: With `C[C@H]1[C@@H](OCC(CO[C@H]2O[C@@H]3O[C@]4(C)CC[C@H]5[C@H](C)CC[C@@H]([C@H]2C)[C@@]35OO4)=NO)O[C@@H]2O[C@]3(C)CC[C@H]4[C@H](C)CC[C@@H]1[C@@]24OO3` as the compound, how does the IC50 [27] read?
A: The IC50 was 13.8 nM.

Q: What about the IC50 [19] of the same compound?
A: Its IC50 is 9.9 nM.

Q: And the Activity [1]?
A: The Activity was 100%.

Q: Which results are given for `CCOP(=O)(CCCN(O)C(=O)CCC(=O)N(CCCCNC(=O)CCO[C@H]1O[C@@H]2O[C@]3(C)CC[C@H]4[C@H](C)CC[C@@H]([C@H]1C)[C@@]24OO3)CCCCNC(=O)CC[C@@H]1O[C@@H]2O[C@@]3(C)CC[C@@H]4[C@@H](C)CC[C@@H]([C@@H]1C)[C@]24OO3)OCC`?
A: IC50 [28]: 0.65 nM; Ratio IC50 [29]: 34

Q: Which results are given for `C[C@H]1[C@@H](OCCN(CCCNc2ccnc3cc(Cl)ccc23)CCO[C@H]2O[C@@H]3O[C@]4(C)CC[C@H]5[C@H](C)CC[C@@H]([C@H]2C)[C@@]35OO4)O[C@@H]2O[C@]3(C)CC[C@H]4[C@H](C)CC[C@@H]1[C@@]24OO3`?
A: Activity [30]: <1%; Activity [31]: <1%

Q: What does the source list for `CCOP(=O)(CCCN(O)C(=O)CCC(=O)N(CCCCNC(=O)CC[C@@H]1O[C@@H]2O[C@@]3(C)CC[C@@H]4[C@@H](C)CC[C@@H]([C@@H]1C)[C@]24OO3)CCCNC(=O)CCO[C@H]1O[C@@H]2O[C@]3(C)CC[C@H]4[C@H](C)CC[C@@H]([C@H]1C)[C@@]24OO3)OCC`?
A: IC50 [28]: 0.36 nM; Ratio IC50 [29]: 94

Q: Which Activity [30] does the source give for `C[C@H]1[C@@H](OCCN2CC[N+](CCNc3ccnc4cc(Cl)ccc34)(CCO[C@H]3O[C@@H]4O[C@]5(C)CC[C@H]6[C@H](C)CC[C@@H]([C@H]3C)[C@@]46OO5)CC2)O[C@@H]2O[C@]3(C)CC[C@H]4[C@H](C)CC[C@@H]1[C@@]24OO3` here?
A: The Activity was under 1%.

Q: And the Activity [31]?
A: Its Activity is under 1%.

Q: Which IC50 [32] does the source give for `COC1(c2ccc(S(C)(=O)=O)cc2)CCC2(CCCCC2)OO1` (stereo not drawn) here?
A: Its IC50 is 31 nM.

Q: Which Activity [33] does the source give for `O=C(CC1CCC2(CC1)OOC1(OO2)C2CC3CC(C2)CC1C3)NC1CC1` (stereo not drawn) here?
A: Its Activity is 100%.
